One assay relates to KB. Nature of the assay: Cytotoxicity against human KB cells by resazurin microplate assay. Format: functional, cell-based. (In general: Resazurin is reduced to fluorescent resorufin, in cell work by metabolically active cells.)
The next assay relates to MCF7. Put plainly: Cytotoxicity against human MCF7 cells by resazurin microplate assay. Format: functional, cell-based.
The subject of another assay is NCI-H187. Put plainly: Cytotoxicity against human NCI-H187 by resazurin microplate assay. Format: functional, cell-based.
The next assay deals with Vero. Nature of the assay: Cytotoxicity against african green monkey Vero cells by green fluorescent protein microplate assay. It is filed as cell-based. To be noted: Chlorocebus sabaeus.

Each structure is given as a SMILES string. pIC50: −log10 of the molar value.

Usually pIC50 stands for −log10 of the IC50, conventionally taken in molar units.

On to `C=C[C@@]1(C)CCc2c3c(c(O)c(O[C@H]4O[C@H](CO)[C@@H](O)[C@H](O)[C@H]4O)c2[C@H]1O)C(C)(C)CCC3` [XYLOPIMARANE], for which the pIC50 in the assay on KB was 6.00; with MCF7 it was 4.89; with NCI-H187, 4.19; in the assay on Vero, 4.39.

The record behind these values is ChEMBL document CHEMBL1687860, “Ring B aromatic norpimarane glucoside from a Xylaria sp” (J Nat Prod, 2011).
